Laboratory results reported in patent publication US5574062A, “Coumarin derivative and use thereof” (Morinaga Milk Industry Co., Ltd., priority 1993, dated 1996).
Where two headings read alike, the source gives them in different places.

Key:
[1] = system: esterases present in the enzyme solution; assay: Formation of deacylated compounds by esterases in rat platelet enzyme solution (HPLC); format: in vitro ADME, rat (platelets); settings: resuspension buffer instead of the enzyme solution
Procedure: (§1) The test was performed to examine whether or not deacylated compounds would be formed due to esterases present in the enzyme solution when the compounds in the third embodiment according to the present invention were treated with the same enzyme solution as in Test Example 3.
(§2) The enzyme solution was prepared according to the same procedure as described in Test Example 1.
(§3) One ml of the above mentioned enzyme solution was diluted with 11 ml of a resuspension buffer. To an aliquot (300 μl) of this enzyme solution was added 3 μl of a 1.0×10^-3 M test compound solution in dimethyl sulfoxide. The mixture was incubated at 37° C. for an indicated time, then the reaction was ceased by the addition of 1 ml of acetonitrile. Twenty μl of the above mixture was subjected to reverse phase high-performance liquid chromatography equipped with a C-18 column to quantify the amount of deacylated products. As a control, a test using 300 μl of the resuspension buffer solution mentioned above instead of the enzyme solution was also performed.
(§4) Conditions of reverse phase high-performance liquid chromatography:
(§5) Column: Superspher RP-18(e) (purchased from Merck), 4.0 mm in diameter, 125 mm in length
(§6) Flow velocity: 1.0 ml/minute
(§7) Eluent: Acetonitrile containing 50 mM NaClO4 and 50 mM orthophosphate-water (55:45)
(§8) Column temperature: 30° C.
(§9) Calibration: Absorbance of 280 nm
(§10) The results of the test upon the compounds of Example 40 (Formula 43b) and Example 57 (Formula 74b) of the compounds according to the present invention will be shown. Since both the compounds of Example 40 (Formula 43b) and Example 57 (Formula 74b) are thought to be converted into the compound of Referential Example 8 (Formula 34b) through deacylation, the retention time of the compound of Referential Example 8 was checked strictly under the employed conditions with reverse phase high-performanceliquid chromatography mentioned above (retention time: 2.49 minutes) and a calibration curve of the compound was made using authentic sample of Referential Example 8.

[2] = as above; format: in vitro ADME, rat (platelets); settings: rat, platelet enzyme solution, 37° C., enzyme solution, read-out: conversion ratio to Formula 34b; for metabolised at 0.5 h, 10 µM: reaction time 30 minute; for metabolised at 1 h, 10 µM: reaction time 60 minute
Procedure: as §1, §2, §3, §4, §5, §6, §7, §8, §9, §10

[3] = target: T1, 12-lipoxygenase (Rattus norvegicus, UniProt F1LQ70); assay: 12-lipoxygenase inhibition assay (rat platelet supernatant, arachidonic acid, HPLC of 12-HETE); format: biochemical, Sprague Dawley male rat (platelets)
T1 construct: The platelets were then sonicated at 4° C. and centrifuged at 100,000×g for 30 minutes to obtain a supernatant as a 12-lipoxygenase enzyme solution; from tissue; host or cells: Sprague Dawley rat platelets (from aortic blood), sonicated, 100,000 x g supernatant
T1 sequence (F1LQ70 1-663): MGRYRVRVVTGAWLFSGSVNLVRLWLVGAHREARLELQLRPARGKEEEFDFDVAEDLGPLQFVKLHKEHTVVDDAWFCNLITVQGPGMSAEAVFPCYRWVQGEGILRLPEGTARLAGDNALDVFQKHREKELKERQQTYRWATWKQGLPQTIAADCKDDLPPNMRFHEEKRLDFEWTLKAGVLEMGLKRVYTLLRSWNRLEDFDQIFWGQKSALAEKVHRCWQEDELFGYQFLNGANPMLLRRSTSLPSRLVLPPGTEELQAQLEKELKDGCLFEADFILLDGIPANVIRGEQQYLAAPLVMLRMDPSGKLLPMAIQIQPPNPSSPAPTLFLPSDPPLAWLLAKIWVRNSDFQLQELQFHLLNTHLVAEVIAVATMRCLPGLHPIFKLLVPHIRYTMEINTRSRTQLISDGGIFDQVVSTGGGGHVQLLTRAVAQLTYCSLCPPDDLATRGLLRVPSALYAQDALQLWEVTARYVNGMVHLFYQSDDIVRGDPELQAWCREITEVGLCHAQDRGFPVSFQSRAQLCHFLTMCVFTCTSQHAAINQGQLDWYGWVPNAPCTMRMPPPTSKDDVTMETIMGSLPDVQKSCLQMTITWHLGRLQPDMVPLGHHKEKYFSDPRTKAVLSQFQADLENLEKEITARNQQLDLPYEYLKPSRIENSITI
Procedure: (§11) A Sprague Dawley male rat was anesthetized with ether and bled from abdominal aorta using a syringe filled with about one-tenth volume of 3.8% sodium citrate. Blood was centrifuged at 180×g for 15 minutes at room temperature to pellet sanguineous platelet blood plasma. The resultant supernatant was again centrifuged at 1800×g for 10 minutes at 4° C. The pelleted platelets were rinsed twice with a washing buffer (50 mM Tris-hydrochloric acid buffer containing 154 mM sodium chloride and 2 mM EDTA, pH: 7.4). The platelets were then suspended in one-twentieth volume of a resuspension buffer (50 mM Tris-hydrochloric acid buffer containing 154 mM sodium chloride and 5.5 mM glucose, pH: 7.4). The platelets were then sonicated at 4° C. and centrifuged at 100,000×g for 30 minutes to obtain a supernatant as a 12-lipoxygenase enzyme solution.
(§12) The enzyme solution described above was diluted with the resuspension buffer above mentioned to prepare an assay solution so as to include about 2 mU/ml of 12-lipoxygenase. To an aliquot (300 μl) of the assay solution was added 1 μl of a 3 mM indomethacin-ethanol solution, 1 μl of an aqueous 300 mM reduced-glutathione solution, and 3 μl of varied concentrated test compounds solution in ethanol. The resultant mixture was incubated at 37° C. for 5 minutes. Subsequently, 3 μl of a 2.5 mM arachidonic acid solution in ethanol was added to incubate with for another 5 minutes at 37° C., then the reaction was ceased by the addition of 600 μl of methanol. After being centrifuged at 10,000×g for 5 minutes, 12-hydroxyeicosatetraenoic acid recovered in the supernatant was separated with a reverse phase high-performance liquid chromatography equipped with a C-18 column and measured the absorption of diene at 234 nm to quantify the activity of 12-lipoxygenase.
(§13) As test compounds were used the compounds of the present invention prepared in the same methods as in Example 4, Example 5 and Example 8 and the compounds prepared in the same methods as in Comparative Examples 1-5, and as a control was used esculetin (purchased from Tokyo Kasei), a known compound represented by the following formula: [drawing 33] and the test was conducted at varied concentrations.
(§14) The enzyme solution was prepared according to the same manner as in Test Example 1.
(§15) The inhibition assay was performed according to the same method as described in Test Example 1 except that the same samples used in measurement of the 5-lipoxygensase activity were used to estimate IC50 values. […]
(§16) They were measured in the same method as in Test Example 1.

[4] = system: 12-lipoxygenase; settings: known compound used as lead; cited from earlier work
[5] = target: T2, 5-lipoxygenase (Rattus norvegicus, UniProt P12527); assay: 5-lipoxygenase inhibition assay (RBL-1 supernatant, arachidonic acid, HPLC of 5-HETE); format: biochemical, rat (basophilic leukemia cells RBL-1, ATCC CRL1378)
T2 construct: host or cells: RBL-1 (rat basophilic leukemia cells)
T2 sequence (P12527 1-673): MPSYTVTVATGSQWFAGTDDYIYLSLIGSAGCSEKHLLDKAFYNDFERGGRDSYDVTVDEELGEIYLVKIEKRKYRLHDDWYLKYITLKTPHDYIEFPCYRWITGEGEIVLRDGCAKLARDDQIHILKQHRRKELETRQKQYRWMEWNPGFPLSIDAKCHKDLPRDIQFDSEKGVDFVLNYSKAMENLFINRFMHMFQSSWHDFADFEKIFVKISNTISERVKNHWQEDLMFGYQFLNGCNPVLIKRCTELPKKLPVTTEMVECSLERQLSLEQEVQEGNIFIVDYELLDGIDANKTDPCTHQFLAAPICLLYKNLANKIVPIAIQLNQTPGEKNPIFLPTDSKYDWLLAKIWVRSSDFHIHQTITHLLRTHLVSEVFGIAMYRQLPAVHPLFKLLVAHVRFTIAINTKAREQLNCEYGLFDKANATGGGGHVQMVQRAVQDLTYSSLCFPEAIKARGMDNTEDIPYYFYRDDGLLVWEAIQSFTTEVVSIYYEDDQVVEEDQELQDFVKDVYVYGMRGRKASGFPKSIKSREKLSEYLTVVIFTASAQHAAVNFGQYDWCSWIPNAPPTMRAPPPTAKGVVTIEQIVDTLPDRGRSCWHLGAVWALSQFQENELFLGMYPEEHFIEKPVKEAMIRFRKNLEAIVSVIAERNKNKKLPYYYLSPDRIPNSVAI
Procedure: Rat basophilic leukemia cells (RBL-1, ATCC CRL1378) were cultured in Dulbecco modified Eagle's medium containing 10% new-born bovine serum.
Cultured cells were collected and washed twice with a 50 mM Tris-buffered saline (containing 154 mM sodium chloride, pH: 7.4, hereinafter described as TBS). The cell suspension (4×10^7 cells/ml) was then sonicated and centrifuged at 10,000×g for 10 minutes.
The resultant supernatant was used to prepare an assay solution.
To an aliquot (15 μl) of the enzyme solution (40 mU/ml equivalent) was added 185 μl of TBS, 50 μl of a 2 mM adenosine triphosphate in TBS, 50 μl of a 12 mM calcium chloride in TBS, 1 μl of a 3 mM indomethacin in ethanol solution, 1 μl of an aqueous 300 mM reduced glutathione solution, and 3 μl of varied concentrated test compounds solution in ethanol. The resultant mixture was incubated at 37° C. for 5 minutes. Subsequently, 3 μl of a 2.5 mM arachidonic acid solution in ethanol was added to incubate the mixture for 2 minutes at 37° C. The reaction was ceased by the addition of 600 μl of methanol. After being centrifuged at 10,000×g for 5 minutes, 5-hydroxyeicosatetraenoic acid recovered in the supernatant was separated with a reverse phase high-performance liquid chromatography equipped with a C-18 column and measured the absorption of diene at 234 nm to quantify the activity of the enzyme.
Using the compounds of the present invention prepared in the same manner as in Examples 1-30, and Examples 33-36 as test samples and known baicalein (purchased from Wako Junyaku Kogyo) represented by the following formula 30 as a control: [drawing 34] the tests were performed for dose dependent inhibition to estimate IC50 values
It was prepared in the same method as in Test Example 2.
They were measured in the same method as in Test Example 2.

[6] = system: 12-lipoxygenase; assay: 12-lipoxygenase inhibition assay (rat platelet supernatant, arachidonic acid, HPLC of 12-HETE); format: biochemical, Sprague Dawley male rat (platelets); settings: comparative tests by the inventors
Procedure: as §11, §12, §13, §14, §15, §16

[7] = system: 12-lipoxygenase of mastocytoma cells; settings: literature; cited from earlier work
[8] = 12-Lipoxygenase inhibiting activity IC50 value, Test Example 5, Table 22
[9] = Test Example 1, Table 1 and text, read-out: 12-lipoxygenase IC50 value
[10] = Test Example 2, Table 2, read-out: IC50 value of 12-lipoxygenase
[11] = Test Example 2, Table 2, read-out: IC50 value of 5-lipoxygenase
[12] = Test Example 5, Table 22, read-out: 12-Lipoxygenase inhibiting activity IC50 value
[13] = Test Example 5, Table 22, read-out: 5-Lipoxygenase inhibiting activity IC50 value

## CCC(=O)Oc1cc2cc(-c3cccc(Cl)c3)c(=O)oc2cc1OC(=O)CC [Example 57]
[1]
  formation of deacylated compound in buffer control: no deacylated compound (Formula 34b) was formed
[2]
  metabolised at 0.5 h, 10 µM: 42.4%
  metabolised at 1 h, 10 µM: 60.4%

## O=c1cc(-c2ccccc2)oc2cc(O)c(O)c(O)c12 [Baicalein, 5,6,7-trihydroxyflavone, reference compound]
[3]; [8]
  IC50: 42 nM
[3]; 12-lipoxygenase inhibiting activities of deacylated compounds (IC50 values), Test Example 3, Table 11, value belongs to the deacylated compound
  IC50: 42 nM
[3]; IC50 value of 12-lipoxygenase, Test Example 2, Table 2
  IC50: 42 nM
[3]; read-out: 12-Lipoxygenase inhibiting activity IC50 value, Test Example 5, Table 22
  IC50: 42 nM
[4]
  12-lipoxygenase inhibitory activity (in words): relatively strong 12-lipoxygenase inhibitory activity
  selectivity (in words): relatively high selectivity
[5]
  IC50: 2400 nM
[5]; read-out: IC50 value of 5-lipoxygenase, Test Example 2, Table 2
  IC50: 2400 nM

## CC(=O)Oc1cc2cc(-c3cccc(Cl)c3)c(=O)oc2cc1OC(C)=O [Example 40]
[1]
  formation of deacylated compound in buffer control: no deacylated compound (Formula 34b) was formed
[2]
  metabolised at 0.5 h, 10 µM: 70.7%
  metabolised at 1 h, 10 µM: 72.8%

## O=c1ccc2cc(O)c(O)cc2o1 [Esculetin, 6,7-dihydroxycoumarin, reference compound]
[6]
  selectivity between 12-lipoxygenase and 5-lipoxygenase (in words): no selectivity was found
[3]
  12-lipoxygenase inhibitory activity (in words): considerably weaker inhibitory effect on 12-lipoxygenase than the compounds of the present invention
[3]; [8]
  IC50: 4400 nM
[3]; 12-lipoxygenase IC50 value, Test Example 1, Table 1 and text
  IC50: 4400 nM
[7]
  IC50: 2500 nM
[5]
  IC50: 4300 nM

## O=c1cc(-c2ccccc2)c2ccc(O)c(O)c2o1 [Comp. Example 3, reference compound]
[6]
  selectivity between 12-lipoxygenase and 5-lipoxygenase (in words): no selectivity was found
[3]; [9]
  IC50: 260 nM
[5]; text of Test Example 1, not shown in Table 1, read-out: 5-lipoxygenase inhibitory activity IC50 value
  IC50: 640 nM

## Cc1c(-c2ccc(Cl)cc2)c(=O)oc2cc(O)c(O)cc12 [Example 5, 3-(4-chlorophenyl)-4-methyl-6,7-dihydroxycoumarin]
[3]; [9]
  IC50: 9.2 nM
[3]; [10]
  IC50: 9.2 nM
[3]; Test Example 3, Table 11, value belongs to the deacylated compound, read-out: 12-lipoxygenase inhibiting activities of deacylated compounds (IC50 values)
  IC50: 9.2 nM
[5]; [11]
  IC50: 410 nM

## Cc1cccc(-c2cc3cc(O)c(O)cc3oc2=O)c1 [Example 12]
[3]; [10]
  IC50: 11 nM
[5]; [11]
  IC50: 280 nM

## O=c1oc2c(O)c(O)ccc2cc1-c1ccc2ccccc2c1 [Example 61]
[3]; [12]
  IC50: 34 nM
[5]; [13]
  IC50: 230 nM

## O=c1oc2cc(O)c(O)cc2cc1-c1csc2ccccc12 [Example 64]
[3]; [12]
  IC50: 10 nM
[5]; [13]
  IC50: 180 nM

## CCc1ccc(-c2cc3ccc(O)c(O)c3oc2=O)cc1 [Example 19]
[3]; [10]
  IC50: 14 nM
[5]; [11]
  IC50: 250 nM
